In EP4467141A1, “PYRAZOLO-QUINOLINES AS SELECTIVE INHIBITORS OF GENOTOXIC STRESS-INDUCED IKK/NF- KB PATHWAYS FOR CANCER THERAPY” (Max-Delbrück-Centrum für Molekulare Medizin in der …, priority 2023, dated 2024) one finds inhibition data, which are given here for seven molecules.

Assay in all cases: Kinase panel study
Holding throughout (format): biochemical
Holding throughout (settings): for inhibition at 1 µM: 1000nM

One test concerns the target T1, PIP5K1C (Homo sapiens, UniProt O60331).
T1 construct: purchased Thermo Fisher Scientific
An outline of the steps: (§1)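 A commercial kinase profiling service ran the assays according to its ZLyte or Adapta standard protocols. Compound was present at 10 µM or 1 µM, and kinase activity loss was expressed as percent inhibition.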

For a further test, the target named is T2, AKT2 (PKB beta) (Homo sapiens, UniProt P31751).
T2 construct: purchased Thermo Fisher Scientific
T2 sequence (P31751 whole entry): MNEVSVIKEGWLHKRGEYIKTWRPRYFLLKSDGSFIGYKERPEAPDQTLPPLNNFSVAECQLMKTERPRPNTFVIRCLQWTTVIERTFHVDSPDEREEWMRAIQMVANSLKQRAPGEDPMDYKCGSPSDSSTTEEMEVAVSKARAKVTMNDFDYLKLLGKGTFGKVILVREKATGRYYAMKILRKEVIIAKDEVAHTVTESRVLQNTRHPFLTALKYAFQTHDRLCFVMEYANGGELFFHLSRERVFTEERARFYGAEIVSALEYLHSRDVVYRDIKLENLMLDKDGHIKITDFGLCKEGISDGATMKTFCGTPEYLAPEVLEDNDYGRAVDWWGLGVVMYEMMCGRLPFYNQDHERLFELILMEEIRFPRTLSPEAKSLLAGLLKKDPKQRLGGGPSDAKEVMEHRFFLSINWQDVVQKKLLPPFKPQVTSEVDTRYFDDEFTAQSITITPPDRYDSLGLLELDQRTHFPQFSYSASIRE
In outline: as §1

In test [1] the target is T3, PIK3CB/PIK3R1 (p110 beta/p85 alpha) (Homo sapiens, UniProt P42338).
T3 construct: purchased Thermo Fisher Scientific
T3 sequence (P42338 whole entry): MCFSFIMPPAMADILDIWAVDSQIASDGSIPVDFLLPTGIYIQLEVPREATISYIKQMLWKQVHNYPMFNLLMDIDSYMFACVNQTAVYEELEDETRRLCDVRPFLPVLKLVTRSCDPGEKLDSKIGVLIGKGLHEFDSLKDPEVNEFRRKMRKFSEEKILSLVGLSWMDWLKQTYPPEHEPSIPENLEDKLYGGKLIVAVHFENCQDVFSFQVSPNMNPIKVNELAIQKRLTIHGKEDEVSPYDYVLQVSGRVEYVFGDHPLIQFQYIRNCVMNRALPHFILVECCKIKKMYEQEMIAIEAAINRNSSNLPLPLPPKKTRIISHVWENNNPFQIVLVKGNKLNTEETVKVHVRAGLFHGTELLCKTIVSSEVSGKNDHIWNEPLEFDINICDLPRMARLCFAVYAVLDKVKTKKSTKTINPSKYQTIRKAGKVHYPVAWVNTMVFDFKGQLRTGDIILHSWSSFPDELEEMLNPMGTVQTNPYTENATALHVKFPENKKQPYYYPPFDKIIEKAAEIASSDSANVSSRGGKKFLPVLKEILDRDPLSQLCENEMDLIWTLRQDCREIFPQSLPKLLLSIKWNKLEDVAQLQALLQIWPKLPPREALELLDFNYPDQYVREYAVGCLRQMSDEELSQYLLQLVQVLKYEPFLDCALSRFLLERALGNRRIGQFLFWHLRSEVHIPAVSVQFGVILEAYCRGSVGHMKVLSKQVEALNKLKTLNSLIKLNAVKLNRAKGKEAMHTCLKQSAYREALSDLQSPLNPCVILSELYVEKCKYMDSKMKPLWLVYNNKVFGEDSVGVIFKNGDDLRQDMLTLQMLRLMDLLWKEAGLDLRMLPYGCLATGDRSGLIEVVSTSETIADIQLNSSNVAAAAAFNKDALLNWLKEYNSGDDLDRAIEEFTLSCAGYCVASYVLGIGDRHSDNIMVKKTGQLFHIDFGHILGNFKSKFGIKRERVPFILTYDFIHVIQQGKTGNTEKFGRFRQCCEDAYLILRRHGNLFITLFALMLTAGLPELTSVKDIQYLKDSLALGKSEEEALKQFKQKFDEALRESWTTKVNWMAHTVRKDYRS
T3 sequence (P27986 whole entry partner): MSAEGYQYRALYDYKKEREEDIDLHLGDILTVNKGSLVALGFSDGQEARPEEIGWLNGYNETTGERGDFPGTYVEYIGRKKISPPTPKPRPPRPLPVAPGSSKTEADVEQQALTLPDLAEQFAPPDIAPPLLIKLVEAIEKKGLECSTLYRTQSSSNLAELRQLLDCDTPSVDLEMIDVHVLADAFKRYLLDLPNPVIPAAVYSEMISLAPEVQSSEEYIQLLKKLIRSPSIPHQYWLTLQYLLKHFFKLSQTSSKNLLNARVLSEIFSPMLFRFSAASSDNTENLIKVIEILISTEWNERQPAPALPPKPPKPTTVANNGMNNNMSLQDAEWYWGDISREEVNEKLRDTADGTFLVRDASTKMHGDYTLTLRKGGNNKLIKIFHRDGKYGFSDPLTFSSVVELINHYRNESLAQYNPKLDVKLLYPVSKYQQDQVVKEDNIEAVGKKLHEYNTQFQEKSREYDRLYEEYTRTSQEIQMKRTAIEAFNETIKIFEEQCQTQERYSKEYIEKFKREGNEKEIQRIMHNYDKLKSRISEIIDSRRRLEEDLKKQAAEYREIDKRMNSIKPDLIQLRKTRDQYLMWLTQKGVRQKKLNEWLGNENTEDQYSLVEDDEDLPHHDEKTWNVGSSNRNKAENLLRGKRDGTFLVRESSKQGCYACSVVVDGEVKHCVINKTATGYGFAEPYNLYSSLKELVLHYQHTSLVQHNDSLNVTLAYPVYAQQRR
An outline of the steps:
as §1

In a further test the target is T4, PRKCN (PKD3) (Homo sapiens, UniProt O94806).
T4 construct: purchased Thermo Fisher Scientific
T4 sequence (O94806 1-890): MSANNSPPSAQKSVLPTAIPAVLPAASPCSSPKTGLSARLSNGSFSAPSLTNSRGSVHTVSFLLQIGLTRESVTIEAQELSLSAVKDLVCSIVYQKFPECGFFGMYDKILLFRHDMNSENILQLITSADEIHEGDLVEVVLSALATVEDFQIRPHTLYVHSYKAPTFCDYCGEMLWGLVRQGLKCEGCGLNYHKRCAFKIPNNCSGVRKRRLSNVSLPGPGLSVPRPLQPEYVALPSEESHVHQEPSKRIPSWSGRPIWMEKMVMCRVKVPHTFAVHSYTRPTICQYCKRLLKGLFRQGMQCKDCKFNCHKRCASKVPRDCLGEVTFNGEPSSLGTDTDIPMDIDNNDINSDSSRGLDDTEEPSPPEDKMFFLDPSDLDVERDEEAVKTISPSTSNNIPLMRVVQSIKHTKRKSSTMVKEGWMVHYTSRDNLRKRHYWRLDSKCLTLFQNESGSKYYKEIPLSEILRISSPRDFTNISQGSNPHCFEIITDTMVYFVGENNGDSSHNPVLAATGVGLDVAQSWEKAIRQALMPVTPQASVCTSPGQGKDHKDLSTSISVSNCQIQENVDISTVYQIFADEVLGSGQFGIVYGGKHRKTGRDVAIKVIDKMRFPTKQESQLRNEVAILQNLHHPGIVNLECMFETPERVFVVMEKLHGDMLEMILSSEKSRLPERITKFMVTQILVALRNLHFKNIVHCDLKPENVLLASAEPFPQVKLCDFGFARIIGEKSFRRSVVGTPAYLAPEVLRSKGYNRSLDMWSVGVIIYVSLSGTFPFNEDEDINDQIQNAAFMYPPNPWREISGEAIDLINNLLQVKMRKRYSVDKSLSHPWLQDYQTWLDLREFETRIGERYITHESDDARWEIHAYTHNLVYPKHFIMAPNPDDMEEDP
In outline: as §1

Another test addresses T5, PIP4K2A (Homo sapiens, UniProt P48426).
T5 construct: purchased Thermo Fisher Scientific
T5 sequence (P48426 1-406): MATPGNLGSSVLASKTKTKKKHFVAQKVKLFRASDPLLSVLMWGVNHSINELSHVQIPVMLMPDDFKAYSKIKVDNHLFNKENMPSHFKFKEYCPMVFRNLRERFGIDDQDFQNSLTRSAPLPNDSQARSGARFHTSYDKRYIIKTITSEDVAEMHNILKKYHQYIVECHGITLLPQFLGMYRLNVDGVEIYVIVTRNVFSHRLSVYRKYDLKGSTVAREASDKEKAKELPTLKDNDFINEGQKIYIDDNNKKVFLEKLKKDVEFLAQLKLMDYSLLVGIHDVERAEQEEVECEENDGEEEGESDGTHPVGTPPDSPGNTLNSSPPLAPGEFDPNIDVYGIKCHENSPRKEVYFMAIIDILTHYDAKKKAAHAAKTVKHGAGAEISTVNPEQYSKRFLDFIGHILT
An outline of the steps: as §1

Test [2] deals with T6, PIK3CB/PIK3R2 (p11 0 beta/p85 beta) (Homo sapiens, UniProt P42338).
T6 construct: purchased Thermo Fisher Scientific
T6 sequence (P42338 whole entry): as the sequence (P42338 whole entry) above
T6 sequence (O00459 whole entry partner): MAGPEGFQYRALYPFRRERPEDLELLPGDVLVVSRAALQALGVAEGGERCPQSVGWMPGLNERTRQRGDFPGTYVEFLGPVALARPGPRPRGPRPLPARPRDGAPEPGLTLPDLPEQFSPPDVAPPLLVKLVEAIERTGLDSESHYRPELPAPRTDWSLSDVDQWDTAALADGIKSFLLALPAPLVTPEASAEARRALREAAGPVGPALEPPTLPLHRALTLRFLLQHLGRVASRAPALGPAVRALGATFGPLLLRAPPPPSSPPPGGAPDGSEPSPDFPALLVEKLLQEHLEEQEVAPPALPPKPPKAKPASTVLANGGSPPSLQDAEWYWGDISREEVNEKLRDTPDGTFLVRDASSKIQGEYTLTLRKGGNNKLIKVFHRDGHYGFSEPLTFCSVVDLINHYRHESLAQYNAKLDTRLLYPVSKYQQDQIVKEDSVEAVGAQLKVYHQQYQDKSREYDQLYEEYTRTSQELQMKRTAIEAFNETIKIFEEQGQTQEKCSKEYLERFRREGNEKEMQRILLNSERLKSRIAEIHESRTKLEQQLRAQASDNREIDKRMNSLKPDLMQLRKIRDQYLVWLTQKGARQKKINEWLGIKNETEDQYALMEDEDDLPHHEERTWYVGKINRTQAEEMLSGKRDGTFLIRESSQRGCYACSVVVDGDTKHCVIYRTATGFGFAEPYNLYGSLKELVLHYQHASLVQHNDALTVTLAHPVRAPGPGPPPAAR
In outline:
as §1

A further test has as its target T7, IRAK4 (Homo sapiens, UniProt Q9NWZ3).
T7 construct: purchased Thermo Fisher Scientific
T7 sequence (Q9NWZ3 1-460): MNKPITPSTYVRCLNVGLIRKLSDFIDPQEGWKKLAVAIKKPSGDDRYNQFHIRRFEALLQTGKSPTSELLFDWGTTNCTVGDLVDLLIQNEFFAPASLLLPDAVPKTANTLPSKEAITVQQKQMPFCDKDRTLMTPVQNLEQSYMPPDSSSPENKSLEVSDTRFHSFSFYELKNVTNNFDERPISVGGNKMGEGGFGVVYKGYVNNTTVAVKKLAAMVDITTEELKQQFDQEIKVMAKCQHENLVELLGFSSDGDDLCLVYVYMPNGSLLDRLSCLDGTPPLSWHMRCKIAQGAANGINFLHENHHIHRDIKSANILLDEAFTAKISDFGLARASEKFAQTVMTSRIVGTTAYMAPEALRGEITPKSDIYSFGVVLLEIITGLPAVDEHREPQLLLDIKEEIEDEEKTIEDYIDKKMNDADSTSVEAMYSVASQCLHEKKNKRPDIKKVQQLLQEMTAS
In outline: as §1

The next test addresses T8, DYRK1B (Homo sapiens, UniProt Q9Y463).
T8 construct: purchased Thermo Fisher Scientific
In outline: as §1

The mark [3] stands for this setting: PIP5K1C, compound at 10µM, read-out: % of Inhibition.
[4] abbreviates: AKT2 (PKB beta), compound at 10µM, read-out: % of Inhibition.
The mark [5] stands for this setting: PIK3CB/PIK3R1, compound at 10µM, read-out: % of Inhibition.
[6] abbreviates: PRKCN (PKD3), compound at 10µM, read-out: % of Inhibition.
Setting [7] is: PIP4K2A, compound at 10µM, read-out: % of Inhibition.
The mark [8] stands for this setting: PIK3CB/PIK3R2, compound at 10µM, read-out: % of Inhibition.
Where [9] appears, read: IRAK4, compound at 10µM, read-out: % of Inhibition.
Setting [10] is: DYRK1B, compound at 10µM, read-out: % of Inhibition.
Where [11] appears, read: read-out: Percentage of inhibition.
The mark [12] stands for this setting: 10000nM, read-out: Percentage of inhibition.

Where two headings read alike, the source gives them in different places.

T8 sequence (Q9Y463 whole entry): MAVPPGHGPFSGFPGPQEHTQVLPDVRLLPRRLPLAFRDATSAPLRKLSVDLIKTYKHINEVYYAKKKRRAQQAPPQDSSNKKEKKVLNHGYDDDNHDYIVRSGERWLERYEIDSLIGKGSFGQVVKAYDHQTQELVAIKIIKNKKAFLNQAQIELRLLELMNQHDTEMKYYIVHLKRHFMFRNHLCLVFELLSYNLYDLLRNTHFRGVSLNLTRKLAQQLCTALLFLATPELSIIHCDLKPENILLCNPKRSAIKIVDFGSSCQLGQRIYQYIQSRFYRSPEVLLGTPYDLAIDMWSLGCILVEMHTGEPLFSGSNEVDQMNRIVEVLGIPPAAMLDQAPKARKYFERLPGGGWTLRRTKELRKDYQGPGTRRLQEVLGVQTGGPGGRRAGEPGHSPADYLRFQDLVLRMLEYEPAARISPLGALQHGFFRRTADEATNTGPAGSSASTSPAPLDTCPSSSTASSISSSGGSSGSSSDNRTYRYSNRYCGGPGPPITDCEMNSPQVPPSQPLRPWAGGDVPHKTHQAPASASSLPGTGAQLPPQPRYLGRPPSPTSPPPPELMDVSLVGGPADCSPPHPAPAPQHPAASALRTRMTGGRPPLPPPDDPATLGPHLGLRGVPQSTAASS
T1 sequence (O60331 whole entry): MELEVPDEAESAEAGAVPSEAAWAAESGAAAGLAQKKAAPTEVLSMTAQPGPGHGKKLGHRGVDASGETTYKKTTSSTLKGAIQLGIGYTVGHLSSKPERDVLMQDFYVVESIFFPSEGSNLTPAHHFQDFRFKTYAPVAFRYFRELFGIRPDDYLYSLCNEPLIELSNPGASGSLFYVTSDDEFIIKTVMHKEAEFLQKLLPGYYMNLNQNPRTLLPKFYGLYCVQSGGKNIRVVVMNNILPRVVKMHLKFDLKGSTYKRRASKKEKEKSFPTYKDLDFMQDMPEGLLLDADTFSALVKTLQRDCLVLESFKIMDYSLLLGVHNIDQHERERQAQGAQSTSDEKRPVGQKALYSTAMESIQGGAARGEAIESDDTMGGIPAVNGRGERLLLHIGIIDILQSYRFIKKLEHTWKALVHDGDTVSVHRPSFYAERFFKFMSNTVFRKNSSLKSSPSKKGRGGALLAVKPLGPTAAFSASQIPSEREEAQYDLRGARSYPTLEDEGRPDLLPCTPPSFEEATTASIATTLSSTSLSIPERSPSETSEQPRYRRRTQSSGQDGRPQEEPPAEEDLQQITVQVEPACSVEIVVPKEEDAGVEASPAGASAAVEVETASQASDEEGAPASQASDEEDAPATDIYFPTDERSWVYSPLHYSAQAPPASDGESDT

Regarding `O=c1c2cnccc2c2nccc3c4cc(O)ccc4n1c32` [MW01-E18, 5-hydroxy-1,11,16-triazapentacyclo[10.7.1.0^2,^7.0^8,^20.0^13,^18]icosa-2(7),3,5,8(20),9,11,13(18),14,16-nonaen-19-one], the inhibition – broadly, the change of the read-out against control, counted positive when it falls – at 10 µM was 27% on PIP5K1C (setting [3]); 3% at AKT2 (PKB beta) (setting [4]); 62% in test [1] (setting [5]); 52% at PRKCN (PKD3) (setting [6]); -1% at PIP4K2A (setting [7]); 63% in test [2] (setting [8]). Further, the inhibition at 10 µM came to 2% at IRAK4 (setting [9]) and 68% on DYRK1B (setting [10]).

Regarding `COc1ccc2nc3c(cc2c1)c(N)nn3C(=O)c1cccc(N(C)C)c1` [MW05-E2, 1-[3-(dimethylamino)benzoyl]-6-methoxy-1H-pyrazolo[3,4-b]quinolin-3-amine], the inhibition at 10 µM at PIP5K1C (setting [3]) is -2%; at AKT2 (PKB beta) (setting [4]), 8%; in test [1] (setting [5]), 1%; on PRKCN (PKD3) (setting [6]), 7%; at PIP4K2A (setting [7]) it was -6%; in test [2] (setting [8]), 7%. The inhibition at 10 µM at IRAK4 (setting [9]) is -3%; on DYRK1B (setting [10]) it was 84%.

For `COc1ccc2c(c1OC)c(=O)n1c3ccc(O)cc3c3ccnc2c31` [MW01, 5-Hydroxy-10,11-dimethoxy-9H-benzo[c]indolo[3,2,1-ij][1,5]naphthyridin-9-one], the inhibition at 1 µM at PIP5K1C (setting [11]) was 54%; on AKT2 (PKB beta) (setting [11]), 1%; in test [1] (setting [11]) it was 30%; on PRKCN (PKD3) (setting [11]), 34%; on PIP4K2A (setting [11]), -8%; in test [2] (setting [11]), 24%. The inhibition at 1 µM on IRAK4 (setting [11]) came to 19%; at DYRK1B (setting [11]), 62%. Besides, the inhibition at 10 µM on PIP5K1C (setting [12]) was 69%; at AKT2 (PKB beta) (setting [12]), 9%; in test [1] (setting [12]), 67%; at PRKCN (PKD3) (setting [12]), 57%; on PIP4K2A (setting [12]), -3%; in test [2] (setting [12]), 66%. Moreover, the inhibition at 10 µM at IRAK4 (setting [12]) worked out at 50%; on DYRK1B (setting [12]), 82%.

Consider `COc1ccc2cc3c(N)nn(C(=O)c4cccc(N(C)C)c4)c3nc2c1` [MW05, (3-Amino-7-methoxypyrazolo[3,4-b]quinolin-1-yl)-[3-(dimethylamino)phenyl]methanone], for which the inhibition at 1 µM on PIP5K1C (setting [11]) is -1%; at AKT2 (PKB beta) (setting [11]), 10%; in test [1] (setting [11]), 21%; at PRKCN (PKD3) (setting [11]) it was 17%; at PIP4K2A (setting [11]) it was -10%; in test [2] (setting [11]) it was 15%. For the same molecule, the inhibition at 1 µM at IRAK4 (setting [11]) came to 0%; at DYRK1B (setting [11]) it was 28%. Further, the inhibition at 10 µM at PIP5K1C (setting [12]) is 26%; on AKT2 (PKB beta) (setting [12]) it was -8%; in test [1] (setting [12]) it was 67%; at PRKCN (PKD3) (setting [12]), 15%; at PIP4K2A (setting [12]), -9%; in test [2] (setting [12]), 64%. The inhibition at 10 µM at IRAK4 (setting [12]) worked out at 2%; at DYRK1B (setting [12]), 69%.

With `O=c1c2cc(O)ccc2c2nccc3c4cc(O)ccc4n1c32` [MW01-E10, 5,16-dihydroxy-1,11-diazapentacyclo[10.7.1.0^2,^7.0^8,^20.0^13,^18]icosa-2(7),3,5,8(20),9,11,13(18),14,16-nonaen-19-one], the inhibition at 10 µM was 33% at PIP5K1C (setting [3]); 18% on AKT2 (PKB beta) (setting [4]); 34% in test [1] (setting [5]); 74% on PRKCN (PKD3) (setting [6]); -2% at PIP4K2A (setting [7]); 35% in test [2] (setting [8]). Further, the inhibition at 10 µM is -186% on IRAK4 (setting [9]) and 81% on DYRK1B (setting [10]).

As for `COc1ccc2c(c1)c1ccnc3c4nc(OC)ccc4c(=O)n2c13` [MW01-E6, 5,15-dimethoxy-1,11,14-triazapentacyclo[10.7.1,0^2,7.0^8,^20.0^13,^18]icosa-2(7),3,5,8(20),9,11,13(18),14,16-nonaen-19-one], the inhibition at 10 µM at PIP5K1C (setting [3]) was 14%; at AKT2 (PKB beta) (setting [4]), 4%; in test [1] (setting [5]), 13%; on PRKCN (PKD3) (setting [6]), -8%; on PIP4K2A (setting [7]), -4%; in test [2] (setting [8]), 12%. Besides, the inhibition at 10 µM at IRAK4 (setting [9]) is -9%; at DYRK1B (setting [10]), 20%.

For the molecule `COc1ccc2c(c1)c1ccnc3c4ccnc(OC)c4c(=O)n2c13` [MW01-E14, 5,17-dimethoxy-1,11,16-triazapentacyclo[10.7.1.0^2,^7.0^8,^20.0^13,^18]icosa-2(7),3,5,8(20),9,11,13(18),14,16-nonaen-19-one], the inhibition at 10 µM at PIP5K1C (setting [3]) was 8%; on AKT2 (PKB beta) (setting [4]) it was 14%; in test [1] (setting [5]) it was 26%; at PRKCN (PKD3) (setting [6]) it was -1%; on PIP4K2A (setting [7]) it was 53%; in test [2] (setting [8]), 12%. In addition, the inhibition at 10 µM at IRAK4 (setting [9]) was -15%; at DYRK1B (setting [10]), 23%.
